Measurements published in patent US20230107277A1, “SUBSTITUTED PYRIDAZINE COMPOUND” (Astellas Pharma Inc., priority 2020, published 2023).
Counter-ions that a name gives are not always drawn.

Test system: IL-1β Production of THP-1
Assay: Test on IL-1β production of THP-1 (LPS and ATP stimulation, ELISA)
Format: cell-based
Details: Homo sapiens; PMA-differentiated THP-1 cells, LPS 50 ng/mL and ATP 5 mM, 2 hours
Method: 50 ng/mL of PMA (phorbol myristate acetate, SIGMA, P1585) was added to THP-1 cells, and the cells were cultured at 37° C. for 2 days. […] LPS (Lipopolysaccharide, SIMGA, L2880) and ATP (Adenosine triphosphate, SIGMA, A2383) were added to final concentrations of 50 ng/mL and 5 mM, respectively, and the cells were cultured at 37° C. for 2 hours. The supernatant was collected, and the concentration of IL-1β was measured by an ELISA method (DuoSet ELISA human IL-1β, R&D Systems, DY201). […] The IC50 value was calculated by sigmoid […] model non-linear regression analysis.

Compound | IC50 [nM]
OCCCNc1cc(-c2ccccc2)c(-c2ccc(C(F)(F)F)cc2)nn1 [Example 1, 3-({5-phenyl-6-[4-(trifluoromethyl)phenyl]pyridazin-3-yl}amino)propan-1-ol] | 980
OCCCNc1nnc(-c2ccc(C(F)(F)F)cc2)cc1-c1ccccc1 [Example 2] | 1800
C[C@@H](O)CNc1nnc(-c2ccc(C(F)(F)F)cc2C(F)(F)F)cc1C(=O)N(C)C [Example 14] | 330
C[C@@H](O)CNc1nnc(-c2ccc(C(F)(F)F)cc2C(F)(F)F)cc1OCCOCc1ccccc1 [Example 19] | 610
Cc1c(NC[C@H](C)O)nnc(-c2ccc(C(F)(F)F)cc2C(F)(F)F)c1C [Example 20] | 1500
COc1ccc(-c2cc(C)c(NC[C@@H](C)O)nn2)c(C2CC2)c1 [Example 22] | 530
CC(C)c1cc(-c2ccc(C(F)(F)F)cc2C(F)(F)F)nnc1NC[C@@H](C)O [Example 24] | 560
Cc1cc(NC[C@@H](C)O)nnc1-c1ccccc1O [Example 25] | 500
C[C@@H](O)CNc1cc(C2CC2)c(-c2ccc(C(F)(F)F)cc2C(F)(F)F)nn1 [Example 29] | 460
Cc1cc(NC[C@@H](C)O)nnc1-c1cccc(F)c1O [Example 30] | 510
C[C@@H](O)CNc1nnc(-c2ccc(C(F)(F)F)cc2O)cc1N(C)C [Example 35] | 590
Cc1cc(NC[C@@H](C)O)nnc1-c1c(O)cccc1F [Example 36] | 620
C[C@@H](O)CNc1nnc(-c2ccc(C(F)(F)F)cc2O)c(C2CC2)c1C1CC1 [Example 39] | 750
C[C@@H](O)CNc1nnc(-c2ccc(C(F)(F)F)cc2C(F)(F)F)cc1C(=O)N1CCN(C)CC1 [Example 42, (6-[2,4-bis(trifluoromethyl)phenyl]-3-{[(2R)-2-hydroxypropyl]amino}pyridazine-4-yl)(4-methylpiperazin-1-yl)methanone] | 1500
C[C@@H](O)CNc1nnc(-c2ccc(C(F)(F)F)cc2C(F)(F)F)cc1C(=O)N1CCO[C@@H](C)C1 [Example 43] | 860
C[C@@H](O)CNc1nnc(-c2ccc(C(F)(F)F)cc2C(F)(F)F)cc1C(=O)N1CCSCC1 [Example 44] | 570
CC(=O)N[C@H](C)CNc1ccc(-c2ccc(C(F)(F)F)cc2C(F)(F)F)nn1 [Example 45, N—[(R2R)-1-({6-[2,4-bis(trifluoromethyl)phenyl]pyridazin-3-yl}amino)propan-2-yl]acetoamide] | 530

Compound | IC50 [nM]
CC(C)C(=O)NCCCCNc1ccc(-c2ccc(C(F)(F)F)cc2C(F)(F)F)nn1 [Example 47] | 400
O=C(NCCCCNc1ccc(-c2ccc(C(F)(F)F)cc2C(F)(F)F)nn1)C1CC1 [Example 48] | 510
C[C@@H](O)CNc1nnc(-c2ccc(C(F)(F)F)cc2C(F)(F)F)cc1OC(F)F [Example 49, (2R)-1-({6-[2,4-bis(trifluoromethyl)phenyl]-4-(difluoromethoxy)pyridazin-3-yl}amino)propan-2-ol hydrochloride] | 680
OCCCNc1nnc(-c2ccc(C(F)(F)F)cc2)cc1-c1ccco1 [Example 50] | 1100
OCCCNc1cc(-c2ccco2)c(-c2ccc(C(F)(F)F)cc2)nn1 [Example 51] | 990
Cc1cc(NCCCO)nnc1-c1ccc(C(F)(F)F)cc1 [Example 52] | 470
Cc1cc(-c2ccc(C(F)(F)F)cc2)nnc1NCCCO [Example 53] | 2700
OCCCNc1cc(-c2ccccc2)c(-c2ccc(C(F)(F)F)cc2C(F)(F)F)nn1 [Example 54] | 3500
C[C@@H](O)CNc1cc(-n2ccnc2)c(-c2ccc(C(F)(F)F)cc2C(F)(F)F)nn1 [Example 55] | 5100
C[C@@H]1COCCN1C(=O)c1cc(-c2ccc(C(F)(F)F)cc2C(F)(F)F)nnc1NC[C@@H](C)O [Example 56] | 2500
C[C@@H](O)CNc1nnc(-c2ccc(C(F)(F)F)cc2C(F)(F)F)cc1C(=O)N1CCOC[C@@H]1C [Example 57] | 1600
C[C@@H]1CN(C(=O)c2cc(-c3ccc(C(F)(F)F)cc3C(F)(F)F)nnc2NC[C@@H](C)O)CCO1 [Example 58] | 950
COc1ccc(-c2nnc(NC[C@@H](C)O)cc2C)c(C(F)(F)F)c1 [Example 59] | 750
COc1ccc(-c2nnc(NC[C@@H](C)O)cc2C)c(C2CC2)c1 [Example 60] | 1700
CC(C)c1cc(NC[C@@H](C)O)nnc1-c1ccc(C(F)(F)F)cc1C(F)(F)F [Example 61] | 1500
Cc1cc(NC[C@@H](C)O)nnc1-c1cc(F)ccc1O [Example 62] | 2100
Cc1c(NCC(C)(C)O)nnc(-c2ccc(C(F)(F)F)cc2O)c1C [Example 68, 2-{6-[(2-hydroxy-2-methylpropyl)amino]-4,5-dimethylpyridazine-3-yl}-5-(trifluoromethyl)phenol] | 310

These reach a lower IC50. Values come first.

IC50 [nM] | Compound
26 | Cc1c(NC[C@@H](C)CO)nnc(-c2ccc(C(F)(F)F)cc2O)c1C (single isomer, unassigned) [Example 76, 2-(6-{[(R2R)-3-hydroxy-2-methylpropyl]amino}-4,5-dimethylpyridazine-3-yl)-5-(trifluoromethyl)phenol]
120 | CCOC(=O)c1cc(-c2ccc(C(F)(F)F)cc2C(F)(F)F)nnc1NC[C@@H](C)O [Example 3, ethyl 6-[2,4-bis(trifluoromethyl)phenyl]-3-{[(2R)-2-hydroxypropyl]amino}pyridazine-4-carboxylate]
200 | Cc1cc(NC[C@@H](C)O)nnc1-c1ccc(C(F)(F)F)cc1C(F)(F)F [Example 5, (2R)-1-({6-[2,4-bis(trifluoromethyl)phenyl]-5-methylpyridazin-3-yl}amino)propan-2-ol]
90 | Cc1cc(-c2ccc(C(F)(F)F)cc2C(F)(F)F)nnc1NC[C@@H](C)O [Example 6, (2R)-1-({6-[2,4-bis(trifluoromethyl)phenyl]-4-methylpyridazin-3-yl}amino)propan-2-ol]
17 | Cc1cc(NC[C@@H](C)O)nnc1-c1ccc(C(F)(F)F)cc1O [Example 7, 2-(6-{[(R2R)-2-hydroxypropyl]amino}-4-methylpyridazin-3-yl)-5-(trifluoromethyl)phenol]
160 | Cc1cc(-c2ccc(C(F)(F)F)cc2O)nnc1NC[C@@H](C)O [Example 8, 2-(6-{[(R2R)-2-hydroxypropyl]amino}-5-methylpyridazin-3-yl)-5-(trifluoromethyl)phenol]
200 | CC(O)CNc1ccc(-c2ccc(C(F)(F)F)cc2C(F)(F)F)nn1 (stereo not drawn) [Example 10]
150 | CC(=O)NCCCCNc1ccc(-c2ccc(C(F)(F)F)cc2C(F)(F)F)nn1 [Example 11]
150 | C[C@@H](O)CNc1ccc(-c2ccc(C(F)(F)F)cc2C(F)(F)F)nn1 [Example 12]
120 | C[C@@H](O)CNc1nnc(-c2ccc(C(F)(F)F)cc2C(F)(F)F)cc1-n1cccn1 [Example 13]
97 | Cc1cc(C)n(-c2cc(-c3ccc(C(F)(F)F)cc3C(F)(F)F)nnc2NC[C@@H](C)O)n1 [Example 15]
200 | Cc1cc(N[C@@H]2CCCC[C@H]2O)nnc1-c1ccc(C(F)(F)F)cc1C(F)(F)F [Example 16]
110 | Cc1cc(-c2ccc(C(F)(F)F)cc2C(F)(F)F)nnc1N[C@@H]1CCCC[C@H]1O [Example 17]
260 | C[C@@H](O)CNc1ccc(-c2ccc(C(F)(F)F)cc2O)nn1 [Example 18]
160 | COc1ccc(-c2cc(C)c(NC[C@@H](C)O)nn2)c(C(F)(F)F)c1 [Example 21]
120 | Cc1cc(-c2ccc(Cl)cc2C(F)(F)F)nnc1NC[C@@H](C)O [Example 23]

IC50 [nM] | Compound
54 | CC(C)c1cc(NC[C@@H](C)O)nnc1-c1ccc(C(F)(F)F)cc1O [Example 26]
190 | Cc1cc(NC[C@@H](C)O)nnc1-c1ccc(F)cc1O [Example 27]
200 | C[C@@H](O)CNc1nnc(-c2ccc(C(F)(F)F)cc2C(F)(F)F)cc1C1CC1 [Example 28]
270 | COc1cccc(-c2nnc(NC[C@@H](C)O)cc2C)c1O [Example 31]
11 | C[C@@H](O)CNc1cc(C2CC2)c(-c2ccc(C(F)(F)F)cc2O)nn1 [Example 32]
170 | Cc1cc(NC[C@@H](C)O)nnc1-c1cccc(Cl)c1O [Example 33]
21 | CC(=O)O[C@H](C)CNc1cc(C)c(-c2ccc(C(F)(F)F)cc2O)nn1 [Example 34]
33 | C[C@@H](O)CNc1nnc(-c2ccc(C(F)(F)F)cc2O)cc1C#N [Example 37]
240 | C[C@@H](O)CNc1nnc(-c2ccc(C(F)(F)F)cc2C(F)(F)F)cc1C(=O)N1CCOCC1 [Example 40, (6-[2,4-bis(trifluoromethyl)phenyl]-3-{[(2R)-2-hydroxypropyl]amino}pyridazin-4-yl)(morpholin-4-yl)methanone]
200 | C[C@@H](O)CNc1nnc(-c2ccc(C(F)(F)F)cc2C(F)(F)F)cc1C(N)=O [Example 41]
120 | O=C(NCCCCNc1ccc(-c2ccc(C(F)(F)F)cc2C(F)(F)F)nn1)C(F)F [Example 46, N-[4({6-[2,4-bis(trifluoromethyl)phenyl]pyridazin-3-yl}amino)butyl]-2,2-difluoroacetoamide]
33 | CCc1cc(NC[C@@H](C)O)nnc1-c1ccc(C(F)(F)F)cc1O [Example 64]
49 | Cc1c(NC[C@@H](C)O)nnc(-c2ccc(Cl)cc2O)c1C [Example 65]
47 | Cc1cc(NC[C@@H](C)O)nnc1-c1ccc(Cl)cc1O [Example 66]
170 | CCc1c(NC[C@@H](C)O)nnc(-c2ccc(C(F)(F)F)cc2O)c1CC [Example 67]
250 | COc1ccc(-c2nnc(NC[C@@H](C)O)cc2C)c(O)c1 [Example 69]
